From the supplement of paper PMC11061612

Assays:
Test in all cases: combination Emax (second highest fraction inhibited in the dose matrix, 72 h); higher = more inhibition; extreme values may be limits of the assay
[1] = tested on: BV-173 (Chronic Myelogenous Leukemia)
How it was run: (§1)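 Cell lines grown in DMEM/F12 or RPMI with 10% FBS were plated in 1536-well plates and held 24 hours at 37°C, 5% CO2 before 72 hours of exposure to two-drug dose matrices, with DMSO typically at 0.2%. CellTiter-Glo 2.0 luminescence gave viability, which was converted to inhibition. Vehicle wells were set to 0 and blank wells to 1. Combination Emax is the second-highest inhibition in the matrix, and Bliss excess is the observed combination effect minus the expected EA + EB − EA·EB, where EA and EB are the single-agent effects.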

[2] = tested on: SNU-C1 (Colorectal Carcinoma)
How it was run: as §1

A704 (Kidney Carcinoma) = tested on: A704 (Kidney Carcinoma)
How it was run: as §1

[3] = tested on: OCUB-M (Breast Carcinoma)
How it was run: as §1

BT-20 (Breast Carcinoma) = tested on: BT-20 (Breast Carcinoma)
How it was run: as §1

[4] = tested on: NCI-H2405 (Lung Adenocarcinoma)
How it was run: as §1

[5] = tested on: OVISE (Ovarian Carcinoma)
How it was run: as §1

[6] = tested on: KINGS-1 (Low Grade Glioma)
How it was run: as §1

NB7 (Neuroblastoma) = tested on: NB7 (Neuroblastoma)
How it was run: as §1

RPMI-7951 (Melanoma) = tested on: RPMI-7951 (Melanoma)
How it was run: as §1

EW-18 (Ewing's Sarcoma) = tested on: EW-18 (Ewing's Sarcoma)
How it was run: as §1

[7] = tested on: SCC-9 (Oral Cavity Carcinoma)
How it was run: as §1

[8] = tested on: MFE-319 (Endometrial Carcinoma)
How it was run: as §1

[9] = tested on: SCC-3 (B-Cell Non-Hodgkin's Lymphoma)
How it was run: as §1

SMILES | combination Emax [1] | combination Emax [2] | combination Emax (A704 (Kidney Carcinoma)) | combination Emax [3] | combination Emax (BT-20 (Breast Carcinoma)) | combination Emax [4] | combination Emax [5] | combination Emax [6] | combination Emax (NB7 (Neuroblastoma)) | combination Emax (RPMI-7951 (Melanoma)) | combination Emax (EW-18 (Ewing's Sarcoma)) | combination Emax [7] | combination Emax [8] | combination Emax [9]
NC1(C(=O)N[C@@H](CCO)c2ccc(Cl)cc2)CCN(c2ncnc3[nH]ccc23)CC1 [Capivasertib] + COc1nnc2ccc(N3CCC(c4ccc(OCCN5CCN(C)C(=O)[C@H]5C)cc4)CC3)nn12 [AZD5153] (first compound max 10 µM, 7x7, partner max 1 µM) | 0.905 | 0.813 | 0.645 | 0.998 | 0.813 | 0.481 | 0.526 | 0.349 | 0.762 | 0.865 | 0.787 | 0.538 | 0.962 | 0.827
CN(C)CCCOc1ccc(-c2ccc3ncc4c(c3c2)n(C2CCOCC2)c(=O)n4C)cn1 [AZD0156] + CCN(CCO)CCCOc1ccc2c(Nc3cc(CC(=O)Nc4cccc(F)c4)[nH]n3)ncnc2c1 [AZD2811] (first compound max 1 µM, 7x7, partner max 1 µM) | 0.975 | 0.205 | 0.156 | 0.727 | 0.198 | 0.106 | 0.113 | 0.167 | 0.276 | 0.257 | 0.678 | 0.186 | 0.147 | 0.445
NC1(C(=O)N[C@@H](CCO)c2ccc(Cl)cc2)CCN(c2ncnc3[nH]ccc23)CC1 [Capivasertib] + C[C@@H]1COCCN1C2=NC(=NC(=C2)C3(CC3)[S@](=N)(=O)C)C4=C5C=CNC5=NC=C4 [AZD6738] (first compound max 10 µM, 7x7, partner max 10 µM) | 0.956 | 0.533 | 0.524 | 1 | 0.771 | 0.477 | 0.694 | 0.425 | 0.635 | 0.892 | 0.811 | 0.412 | 0.787 | 0.938
Cc1cc2ncnn2cc1Nc1ncc2c(n1)n(C1CCOCC1)c(=O)n2C [AZD7648] + O=C(c1cc(Cc2n[nH]c(=O)c3ccccc23)ccc1F)N1CCN(C(=O)C2CC2)CC1 [Olaparib] (first compound max 10 µM, 7x7, partner max 10 µM) | 0.897 | 0.158 | 0.226 | 0.256 | 0.313 | 0.093 | 0.19 | 0.189 | 0.219 | 0.303 | 0.369 | 0.0663 | 0.118 | 0.435
NC1(C(=O)N[C@@H](CCO)c2ccc(Cl)cc2)CCN(c2ncnc3[nH]ccc23)CC1 [Capivasertib] + CCN(CCO)CCCOc1ccc2c(Nc3cc(CC(=O)Nc4cccc(F)c4)[nH]n3)ncnc2c1 [AZD2811] (first compound max 10 µM, 7x7, partner max 1 µM) | 0.915 | 0.588 | 0.324 | 1 | 0.765 | 0.329 | 0.41 | 0.429 | 0.613 | 0.766 | 0.811 | 0.275 | 0.423 | 0.309
Cc1c2c(nn1C)CSCc1cc(n(C)n1)CSc1cc(c3ccccc3c1)OCCCc1c(C(=O)O)n(C)c3c-2c(Cl)ccc13 [AZD5991] + Cn1cnc2c(F)c(Nc3ccc(Br)cc3Cl)c(C(=O)NOCCO)cc21 [Selumetinib] (first compound max 1 µM, 7x7, partner max 3 µM) | 0.938 | 0.695 | 0.306 | 0.979 | 0.763 | 0.483 | 0.291 | 0.354 | 0.536 | 0.934 | 0.927 | 0.654 | 0.604 | 0.639
CC1(C)CCC(CN2CCN(c3ccc(C(=O)NS(=O)(=O)c4ccc(NCC5CCOCC5)c([N+](=O)[O-])c4)c(Oc4cnc5[nH]ccc5c4)c3)CC2)=C(c2ccc(Cl)cc2)C1 [Venetoclax] + C[C@@H](Nc1cc(F)cc(F)c1)c1cc(C(=O)N(C)C)cc2c(=O)cc(N3CCOCC3)oc12 [AZD8186] (first compound max 1 µM, 7x7, partner max 3 µM) | 0.82 | 0.063 | 0.429 | 0.276 | 0.0992 | 0.0892 | 0.238 | 0.332 | 0.295 | 0.496 | 0.599 | 0.193 | 0.0342 | 0.207
Cc1c2c(nn1C)CSCc1cc(n(C)n1)CSc1cc(c3ccccc3c1)OCCCc1c(C(=O)O)n(C)c3c-2c(Cl)ccc13 [AZD5991] + C[C@@H](Nc1cc(F)cc(F)c1)c1cc(C(=O)N(C)C)cc2c(=O)cc(N3CCOCC3)oc12 [AZD8186] (first compound max 1 µM, 7x7, partner max 3 µM) | 0.93 | 0.439 | 0.496 | 0.986 | 0.614 | 0.165 | 0.325 | 0.366 | 0.686 | 0.939 | 0.94 | 0.378 | 0.401 | 0.409
COc1cccc(OCCCN)c1-c1cc(Nc2cnc(C#N)cn2)n[nH]1 [Prexasertib] + CCc1c2c(nc3ccc(O)cc13)-c1cc3c(c(=O)n1C2)COC(=O)[C@]3(O)CC [SN-38] (first compound max 1 µM, 7x7, partner max 0.3 µM) | 0.967 | 0.745 | 0.749 | 0.989 | 0.965 | 0.626 | 0.689 | 0.691 | 0.985 | 0.997 | 0.77 | 0.561 | 0.897 | 1
NC1(C(=O)N[C@@H](CCO)c2ccc(Cl)cc2)CCN(c2ncnc3[nH]ccc23)CC1 [Capivasertib] + CC(=O)c1c(C)c2cnc(Nc3ccc(N4CCNCC4)cn3)nc2n(C2CCCC2)c1=O [Palbociclib] (first compound max 10 µM, 7x7, partner max 10 µM) | 0.87 | 0.549 | 0.665 | 0.994 | 0.81 | 0.612 | 0.467 | 0.414 | 0.689 | 0.854 | 0.807 | 0.289 | 0.611 | 0.479
COc1nnc2ccc(N3CCC(c4ccc(OCCN5CCN(C)C(=O)[C@H]5C)cc4)CC3)nn12 [AZD5153] + CC1(C)CCC(CN2CCN(c3ccc(C(=O)NS(=O)(=O)c4ccc(NCC5CCOCC5)c([N+](=O)[O-])c4)c(Oc4cnc5[nH]ccc5c4)c3)CC2)=C(c2ccc(Cl)cc2)C1 [Venetoclax] (first compound max 1 µM, 7x7, partner max 1 µM) | 0.921 | 0.46 | 0.585 | 0.39 | 0.138 | 0.319 | 0.549 | 0.159 | 0.37 | 0.559 | 0.615 | 0.407 | 0.324 | 0.887
CN(CCO)CC[C@H](CSc1ccccc1)Nc1ccc(S(=O)(=O)NC(=O)c2ccc(N3CCC([C@@H](O)c4ccccc4-c4ccc(Cl)cc4)CC3)cc2)cc1S(=O)(=O)C(F)(F)F [AZD4320] + CN(C)CCCOc1ccc(-c2ccc3ncc4c(c3c2)n(C2CCOCC2)c(=O)n4C)cn1 [AZD0156] (first compound max 1 µM, 7x7, partner max 1 µM) | 0.95 | 0.439 | 0.496 | 0.516 | 0.411 | 0.224 | 0.806 | 0.588 | 0.108 | 0.333 | 0.91 | 0.26 | 0.288 | 0.361
CCc1c2c(nc3ccc(O)cc13)-c1cc3c(c(=O)n1C2)COC(=O)[C@]3(O)CC [SN-38] + CN(C)CCCOc1ccc(-c2ccc3ncc4c(c3c2)n(C2CCOCC2)c(=O)n4C)cn1 [AZD0156] (first compound max 0.3 µM, 7x7, partner max 1 µM) | 0.981 | 0.419 | 0.504 | 0.764 | 0.81 | 0.448 | 0.181 | 0.243 | 0.913 | 0.933 | 0.633 | 0.392 | 0.243 | 1
Cc1cc2ncnn2cc1Nc1ncc2c(n1)n(C1CCOCC1)c(=O)n2C [AZD7648] + CN(C)CCCOc1ccc(-c2ccc3ncc4c(c3c2)n(C2CCOCC2)c(=O)n4C)cn1 [AZD0156] (first compound max 10 µM, 7x7, partner max 1 µM) | 0.386 | 0.316 | 0.215 | 0.4 | 0.413 | 0.183 | 0.366 | 0.3 | 0.213 | 0.396 | 0.391 | 0.24 | 0.311 | 0.299
CN(CCO)CC[C@H](CSc1ccccc1)Nc1ccc(S(=O)(=O)NC(=O)c2ccc(N3CCC([C@@H](O)c4ccccc4-c4ccc(Cl)cc4)CC3)cc2)cc1S(=O)(=O)C(F)(F)F [AZD4320] + Cc1cc2ncnn2cc1Nc1ncc2c(n1)n(C1CCOCC1)c(=O)n2C [AZD7648] (first compound max 1 µM, 7x7, partner max 10 µM) | 0.961 | 0.633 | 0.563 | 0.66 | 0.606 | 0.186 | 0.779 | 0.466 | 0.0542 | 0.516 | 0.883 | 0.306 | 0.264 | 0.337
Cn1cnc2c(F)c(Nc3ccc(Br)cc3Cl)c(C(=O)NOCCO)cc21 [Selumetinib] + C[C@@H]1COCCN1C2=NC(=NC(=C2)C3(CC3)[S@](=N)(=O)C)C4=C5C=CNC5=NC=C4 [AZD6738] (first compound max 10 µM, 7x7, partner max 10 µM) | 0.947 | 0.641 | 0.391 | 0.249 | 0.576 | 0.401 | 0.54 | 0.292 | 0.597 | 0.873 | 0.696 | 0.463 | 0.752 | 0.933
